Structures can show the parent of a compound that is named as a salt. Where two headings read alike, the source gives them in different places.

Experimental findings from patent publication US20260028354A1, “TETRAHYDRONAPHTHALENE DERIVATIVES AS ESTROGEN RECEPTOR DEGRADERS” (REGENT OF THE UNIVERSITY OF MICHIGAN, priority 2022, published 2026) are described below.

In one test the target is CRBN/DDB1 (Homo sapiens (Human), UniProt Q96SW2). Type of test: binding. The settings on record: His tagged CRBN+DDB1, Cy5-labeled Thalidomide probe, one hour; read-out: CRBN HTRF IC50. As to the method:
The binding potency was determined using HTRF assay technology (Perkin Elmer). Compounds were serially diluted in DMSO and […] volume was transferred to white 384-well plate.
(In TR-FRET formats the signal depends on donor and acceptor labels being close together.)

In a further test the target is ER in MCF-7 cells (Homo sapiens (Human), UniProt P03372). The test can be described thus: In-cell Western (ICW) ER degradation assay in MCF-7 cells. In kind it is cell-based. The note with it: for DC50: MCF-7, ER degradation, read-out: MCF7 DC50.
Sequence of ER in MCF-7 cells (P03372 whole entry): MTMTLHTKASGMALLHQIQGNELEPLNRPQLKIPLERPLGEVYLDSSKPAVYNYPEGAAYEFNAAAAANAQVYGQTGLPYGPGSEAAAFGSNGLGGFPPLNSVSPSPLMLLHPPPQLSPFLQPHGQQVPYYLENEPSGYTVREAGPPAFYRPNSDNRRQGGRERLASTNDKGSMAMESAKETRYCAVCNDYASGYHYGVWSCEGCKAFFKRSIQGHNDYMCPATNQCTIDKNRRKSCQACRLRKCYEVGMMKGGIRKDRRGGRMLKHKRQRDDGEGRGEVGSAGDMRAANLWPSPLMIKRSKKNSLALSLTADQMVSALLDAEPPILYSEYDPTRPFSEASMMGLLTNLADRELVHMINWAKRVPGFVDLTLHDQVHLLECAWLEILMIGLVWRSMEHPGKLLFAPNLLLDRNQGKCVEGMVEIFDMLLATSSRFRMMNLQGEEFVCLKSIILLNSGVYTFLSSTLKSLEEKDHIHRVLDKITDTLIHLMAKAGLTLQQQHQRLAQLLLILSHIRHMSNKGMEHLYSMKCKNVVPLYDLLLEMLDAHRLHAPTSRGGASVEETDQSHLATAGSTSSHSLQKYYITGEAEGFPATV
Another test addresses ER in T47D cells (Homo sapiens (Human), UniProt P03372). The test can be described thus: In-cell Western (ICW) ER degradation assay in T47D cells. Type of test: cell-based. The note with it: for DC50: ER degradation.
Where [1] appears, read: MCF7, MCF-7, maximal ER degradation, 16 hrs treatment, read-out: MCF7 Dmax.
[2] abbreviates: maximal ER degradation, 16 hrs treatment, read-out: T47D Dmax.
Setting [3] is: MCF7, read-out: MCF7 Dmax, MCF-7, maximal ER degradation, 16 hrs treatment.
Setting [4] is: read-out: T47D Dmax, T47D, maximal ER degradation, 16 hrs treatment.

Sequence of ER in T47D cells (P03372 whole entry): as above
Sequence of CRBN/DDB1 (Q96SW2 whole entry, species assumed): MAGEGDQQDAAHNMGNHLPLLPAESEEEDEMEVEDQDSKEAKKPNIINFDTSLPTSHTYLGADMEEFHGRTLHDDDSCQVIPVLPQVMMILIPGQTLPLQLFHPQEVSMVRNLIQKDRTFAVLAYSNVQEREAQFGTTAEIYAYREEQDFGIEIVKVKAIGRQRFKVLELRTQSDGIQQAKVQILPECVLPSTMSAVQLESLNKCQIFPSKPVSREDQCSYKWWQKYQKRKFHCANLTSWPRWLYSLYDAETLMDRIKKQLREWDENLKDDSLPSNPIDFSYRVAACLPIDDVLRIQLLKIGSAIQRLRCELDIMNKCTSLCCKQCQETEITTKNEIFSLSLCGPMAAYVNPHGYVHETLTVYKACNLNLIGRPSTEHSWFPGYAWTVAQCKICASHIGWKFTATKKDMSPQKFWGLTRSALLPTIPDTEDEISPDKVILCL
Sequence of CRBN/DDB1 (Q16531 whole entry partner, species assumed): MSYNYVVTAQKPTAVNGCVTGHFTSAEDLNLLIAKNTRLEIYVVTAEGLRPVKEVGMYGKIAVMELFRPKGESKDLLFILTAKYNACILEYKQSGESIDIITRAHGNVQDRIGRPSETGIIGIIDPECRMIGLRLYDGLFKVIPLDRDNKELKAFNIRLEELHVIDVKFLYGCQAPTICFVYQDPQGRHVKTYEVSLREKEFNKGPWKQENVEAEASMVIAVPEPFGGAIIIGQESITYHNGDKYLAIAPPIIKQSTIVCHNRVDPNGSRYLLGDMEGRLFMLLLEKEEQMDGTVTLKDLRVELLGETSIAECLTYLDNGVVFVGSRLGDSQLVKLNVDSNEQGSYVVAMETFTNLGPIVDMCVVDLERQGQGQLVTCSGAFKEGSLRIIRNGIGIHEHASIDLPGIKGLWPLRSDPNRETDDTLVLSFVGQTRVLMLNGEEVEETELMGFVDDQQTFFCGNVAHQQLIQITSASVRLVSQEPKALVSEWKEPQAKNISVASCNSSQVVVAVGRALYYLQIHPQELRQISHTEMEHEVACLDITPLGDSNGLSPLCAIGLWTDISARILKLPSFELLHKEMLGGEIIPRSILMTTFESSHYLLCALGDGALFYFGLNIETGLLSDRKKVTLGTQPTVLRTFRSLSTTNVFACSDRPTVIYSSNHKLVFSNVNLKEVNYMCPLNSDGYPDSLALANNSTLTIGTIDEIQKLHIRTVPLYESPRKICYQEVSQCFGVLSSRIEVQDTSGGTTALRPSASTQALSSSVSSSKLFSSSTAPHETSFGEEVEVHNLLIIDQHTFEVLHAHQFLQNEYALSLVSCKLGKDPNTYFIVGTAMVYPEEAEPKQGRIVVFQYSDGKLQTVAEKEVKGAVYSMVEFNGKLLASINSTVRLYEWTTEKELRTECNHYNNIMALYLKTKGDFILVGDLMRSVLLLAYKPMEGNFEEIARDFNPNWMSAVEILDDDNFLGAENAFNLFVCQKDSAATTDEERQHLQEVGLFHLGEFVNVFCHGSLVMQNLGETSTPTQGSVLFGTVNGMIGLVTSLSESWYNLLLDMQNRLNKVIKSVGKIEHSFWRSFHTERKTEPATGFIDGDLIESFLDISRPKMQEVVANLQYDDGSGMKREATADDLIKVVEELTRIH

For `O=C1CC[C@H](N2Cc3cc4c(cc3C2=O)OC[C@H]2CN(C[C@@H]3COC5(CCN(c6ccc([C@H]7c8ccc(O)cc8CC[C@H]7c7ccccc7)cc6)CC5)C3)CCN42)C(=O)N1` [Compound A20, (S)-3-((R)-3-(((R)-8-(4-((1S, 2R)-6-hydroxy-2-phenyl-1,2,3,4-tetrahydronaphthalen-1-yl)phenyl)-1-oxa-8-azaspiro [4.5]decan-3-yl)methyl)-8-oxo-1,2,3,4,4a,5,8,10-oCtahydro-9H-pyrazino[1′,2′:4,5][1,4]oxazino[2,3-f]isoindol-9-yl)-piperidine-2,6-dione], the IC50 (usually the concentration that inhibits the measured activity by half) on CRBN/DDB1 is 50 to 500 nM. Besides, the maximal degradation (Dmax) at ER in MCF-7 cells (setting [1]) and on ER in T47D cells (setting [2]) was 50 to 75% each time. The DC50 at ER in MCF-7 cells (16 hrs treatment) and at ER in T47D cells (16 hrs treatment) was less than 1 nM throughout.
Regarding `COc1cc(N2CCC(CN3CCC4(CC3)COc3c4ccc4c3CN([C@H]3CCC(=O)NC3=O)C4=O)CC2)ccc1[C@H]1c2ccc(O)cc2CC[C@H]1c1ccccc1` [Compound A36, (R)-3-(1′-((1-(4-((1S,2S)-6-hydroxy-2-phenyl-1,2,3,4-tetrahydronaphthalen-1-yl)-3-methoxyphenyl)piperidin-4-yl)methyl)-6-oxo-6,8-dihydro-2H,7H-spiro[furo[2,3-e]iso-indole-3,4′-piperidin]-7-yl)-piperidine-2,6-dione formate], the IC50 on CRBN/DDB1 is less than 50 nM. The greatest degradation seen (Dmax) (as a rule, the largest share of the target that was removed) was 50 to 75% at ER in MCF-7 cells (setting [3]) and 25 to 50% on ER in T47D cells (setting [4]). In addition, the DC50 at ER in MCF-7 cells (16 hrs treatment) and on ER in T47D cells (16 hrs treatment) was less than 1 nM each time.
For `COc1cc(N2CCC(CN3CCC4(CC3)COc3c4ccc4c3CN([C@H]3CCC(=O)NC3=O)C4=O)CC2)ccc1[C@@H]1c2ccc(O)cc2CC[C@@H]1c1ccccc1` [Compound A37, (R)-3-(1′-((1-(4-((1R,2R)-6-hydroxy-2-phenyl-1,2,3,4-tetrahydronaphthalen-1-yl)-3-methoxyphenyl)piperidin-4-yl)methyl)-6-oxo-6,8-dihydro-2H,7H-spiro[furo[2,3-e]iso-indole-3,4′-piperidin]-7-yl)-piperidine-2,6-dione], the IC50 on CRBN/DDB1 is less than 50 nM. Also, the maximal degradation (Dmax) on ER in MCF-7 cells (setting [3]) and on ER in T47D cells (setting [4]) was 25 to 50% each time. The DC50 on ER in MCF-7 cells (16 hrs treatment) and at ER in T47D cells (16 hrs treatment) was less than 1 nM each time.
For the compound `COc1cc(N2CCC(CN3CCN4c5ccc6c(c5OC[C@H]4C3)CN([C@H]3CCC(=O)NC3=O)C6=O)CC2)c(F)cc1[C@H]1c2ccc(O)cc2CC[C@H]1c1ccccc1` [Compound A39, (S)-3-((R)-7-((1-(2-fluoro-4-((1R,2R)-6-hydroxy-2-phenyl-1,2,3,4-tetrahydronaphthalen-1-yl)-5-methoxyphenyl)piper-idin-4-yl)methyl)-1-oxo-1,3,5,5a,6,7,8,9-octahydro-2H-pyrazino[1′,2′:4,5][1,4]oxazino [2,3-e]isoindol-2-yl)piperidine-2,6-dione], the 50% inhibitory concentration (IC50) on CRBN/DDB1 lay within 50 to 500 nM. The maximal degradation (Dmax) at ER in MCF-7 cells (setting [1]) fell in the range of 25 to 50%; on ER in T47D cells (setting [2]), 50 to 75%. Also, the half-maximal degradation concentration (DC50) (commonly the midpoint of the concentration-degradation curve) was 10 to 100 nM at ER in MCF-7 cells (16 hrs treatment) and 1 to 10 nM at ER in T47D cells (16 hrs treatment).
Turning to `O=C1CCC(Nc2ccc(C34CCN(C[C@H]5COC6(CCN(c7ccc([C@@H]8c9ccc(O)cc9CC[C@@H]8c8ccccc8)cc7)CC6)C5)CC3C4(F)F)cc2)C(=O)N1` (stereo partly drawn) [Compound A44, (3S)-3-((4-(7,7-difluoro-3-(((S)-8-(4-((1R,2S)-6-hydroxy-2-phenyl-1,2,3,4-tetrahydro-naphthalen-1-yl)phenyl)-1-oxa-8-azaspiro[4.5]decan-3-yl)-methyl)-3-azabicyclo[4.1.0]heptan-6-yl)phenyl)amino)-piperidine-2,6-dione], at CRBN/DDB1, the IC50 was greater than 5000 nM. In addition, the greatest degradation seen (Dmax) on ER in MCF-7 cells (setting [3]) and on ER in T47D cells (setting [4]) was less than 25% throughout. The DC50 on ER in MCF-7 cells (16 hrs treatment) and on ER in T47D cells (16 hrs treatment) was greater than 100 nM throughout.
Regarding `O=C1CCC(Nc2ccc(C34CCN(C[C@@H]5COC6(CCN(c7ccc([C@@H]8c9ccc(O)cc9CC[C@@H]8c8ccccc8)cc7)CC6)C5)CC3C4(F)F)cc2)C(=O)N1` (stereo partly drawn) [Compound A45, (3S)-3-((4-(7,7-difluoro-3-(((R)-8-(4-((1R,2S)-6-hydroxy-2-phenyl-1,2,3,4-tetrahydro-naphthalen-1-yl)phenyl)-1-oxa-8-azaspiro[4.5]decan-3-yl)-methyl)-3-azabicyclo[4.1.0]heptan-6-yl)phenyl)amino)-piperidine-2,6-dione], the concentration for half-maximal inhibition (IC50) at CRBN/DDB1 was greater than 5000 nM. The Dmax at ER in MCF-7 cells (setting [3]) and on ER in T47D cells (setting [4]) was less than 25% each time. In addition, the DC50 on ER in MCF-7 cells (16 hrs treatment) and on ER in T47D cells (16 hrs treatment) was greater than 100 nM each time.
As for `COc1cc(N2CCC3(CC2)CC(CN2CCN4c5ccc6c(c5OC[C@H]4C2)CN([C@H]2CCC(=O)NC2=O)C6=O)CO3)ccc1[C@@H]1c2ccc(O)cc2CC[C@@H]1c1ccccc1` (stereo partly drawn) [Compound A53, (3S)-3-((5aR)-7-((8-(4-((1S, 2S)-6-hydroxy-2-phenyl-1,2,3,4-tetrahydronaphthalen-1-yl)-3-methoxyphenyl)-1-oxa-8-azaspiro[4.5]decan-3-yl)-methyl)-1-oxo-1,3,5,5a,6,7,8,9-octahydro-2H-pyrazino[1′,2′: 4,5][1,4]oxazino[2,3-e]isoindol-2-yl)piperidine-2,6-dione], the IC50 at CRBN/DDB1 is less than 50 nM. The Dmax at ER in MCF-7 cells (setting [1]) was 25 to 50%; at ER in T47D cells (setting [2]), 50 to 75%. In addition, the DC50 on ER in MCF-7 cells (16 hrs treatment) was 10 to 100 nM; at ER in T47D cells (16 hrs treatment), 1 to 10 nM.
Regarding `COc1cc(N2CCC3(CC2)CC(CN2CCC4(CC2)COc2c4ccc4c2CN([C@H]2CCC(=O)NC2=O)C4=O)CO3)ccc1[C@@H]1c2ccc(O)cc2CC[C@@H]1c1ccccc1` (stereo partly drawn) [Compound A55, (3S)-3-(1′-((8-(4-((1S,2S)-6-hydroxy-2-phenyl-1,2,3,4-tetrahydronaphthalen-1-yl)-3-methoxyphenyl)-1-oxa-8-azaspiro[4.5]decan-3-yl)meth-yl)-6-oxo-6,8-dihydro-2H,7H-spiro[furo[2,3-e]isoindole-3,4′-piperidin]-7-yl)piperidine-2,6-dione], the IC50 on CRBN/DDB1 was less than 50 nM. The values for the maximal degradation (Dmax) at ER in MCF-7 cells (setting [3]) and at ER in T47D cells (setting [4]) were 25 to 50% and 50 to 75%, respectively. For the same compound, the half-maximal degradation concentration (DC50) at ER in MCF-7 cells (16 hrs treatment) is 10 to 100 nM; on ER in T47D cells (16 hrs treatment), 1 to 10 nM.
For the compound `COc1cc(N2CCC3(CC2)CC(CN2CCN4c5cc6c(cc5OC[C@@H]4C2)C(=O)N([C@H]2CCC(=O)NC2=O)C6)CO3)ccc1[C@@H]1c2ccc(O)cc2CC[C@@H]1c1ccccc1` (stereo partly drawn) [Compound A57, (3S)-3-((4aS)-3-((8-(4-((1S,2S)-6-hydroxy-2-phenyl-1,2,3,4-tetrahydronaphthalen-1-yl)-3-methoxyphenyl)-1-oxa-8-aza-spiro[4.5]decan-3-yl)methyl)-8-oxo-1,2,3,4,4a,5,8,10-octa-hydro-9H-pyrazino[1′,2′:4,5] [1,4]oxazino[2,3-f]isoindol-9-yl)pipcridinc-2,6-dionc], the half-inhibitory concentration (IC50) on CRBN/DDB1 is 50 to 500 nM. In addition, the Dmax on ER in MCF-7 cells (setting [1]) lay in the range of 25 to 50%; at ER in T47D cells (setting [2]) it was 50 to 75%. Moreover, the half-maximal degradation concentration (DC50) on ER in MCF-7 cells (16 hrs treatment) is 10 to 100 nM; at ER in T47D cells (16 hrs treatment), 1 to 10 nM.
The matching figures for `O=C1CCC(NC(=O)c2ccc(N3CCN(CC4CCN(c5ccc([C@@H]6c7ccc(O)cc7CC[C@@H]6c6ccccc6)cc5)CC4)CC3)cn2)C(=O)N1` (stereo partly drawn) [Compound A58, N-(2,6-dioxopiperidin-3-yl)-5-(4-((1-(4-((1R,2S)-6-hydroxy-2-phenyl-1,2,3,4-tetrahydro-naphthalen-1-yl)phenyl)piper-idin-4-yl)methyl)piperazin-1-yl)picolinamide]: greater than 5000 nM, greater than 75%, 50 to 75%, less than 1 nM and less than 1 nM.
